Experimental data reported in patent US7794987B2, “Method for treating central neuropathic pain” (UCB Pharma GmbH, priority 2003, dated 2010).

Tests used:
[1] = test system: spinally injured rats; experiment: Single dose of SPM 927 on allodynia-like behaviours in spinally injured rats (von Frey hairs, brushing, cold); type: in vivo, Sprague-Dawley rats; details: intraperitoneally
Experimental: (§1) Male and female Sprague-Dawley rats (Möllegard, Denmark) weighing 200-250 g at the start of the experiments were used.
(§2) Ischemic spinal cord injury was produced in female rats according to methods described previously (Xu et al., 1992). In brief, the rats were anesthetized with chloral hydrate (300 mg/kg, i.p.) and a midline incision was made on the skin overlying vertebral segments T12-L1. The animals were positioned beneath an argon laser beam and irradiated for 10 min with the beam directed towards vertebral segment T12 or T13 (spinal segments L3-5). Immediately prior to and 5 min after the start of the irradiation, erythrosin B (Red No 3, Aldrich-Chemie, Steinheim, Germany) dissolved in 0.9% saline was injected intravenously through the tail vein at a dose of 32.5 mg/kg. A tunable argon ion laser (Innova model 70, Coherent Laser Product Division, Palo Alto, Calif.) operating at 514 nm was used. The average beam output power was 160 mW. The beam covered the entire width of the vertebra and the length of the beam was 1-2 mm. After irradiation, the wound was closed in layers and the rats were allowed to recover. The bladder was emptied manually for 1 week.
(§3) The vocalization threshold to graded mechanical touch/pressure stimuli were tested with von Frey hairs. During testing the rats were gently restrained in a standing position and the von Frey hair was pushed onto the skin until the filament became bent. The frequency of stimulation was about 1/s and at each intensity the stimulus was applied 5-10 times. The intensity of stimulation which induced consistent vocalization (>75% response rate) was considered as pain threshold.
(§4) The response of rats to brushing stimulation was tested with the blunt point of a pencil gently stroking the skin on the trunk in a rostro-caudal direction. The frequency of the stimulation was about 1/s and responses were graded with a score of 0=no observable response; 1=transient vocalization and moderate effort to avoid probe; 2=consistent vocalization and aversive reactions and 3=sustained and prolonged vocalization and aggressive behaviours.
(§5) Response to cold was tested with ethyl chloride spray applied to the shaved allodynic skin area. The response was graded with a score of 0=no observable response; 1=localized response (skin twitch and contraction), no vocalization; 2=transient vocalization, moderate struggle and 3=sustained vocalization and aggression.
(§6) SPM 927 was dissolved in physiological saline and injected intraperitoneally. The data for von Frey hairs, brushing and cold are expressed as median±median absolute deviation (M.A.D.) and analysed with Wilcoxon signed-ranks test or paired t-test.

[2] = test system: spinally injured rats; experiment: Repeated administration of SPM 927 in spinally injured rats (von Frey hairs, brushing, cold); type: in vivo, Sprague-Dawley rats; details: 20 mg/kg twice a day
Experimental: as §1, §2, §3, §4, §5, §6
The animals were injected with 20 mg/kg SPM 927 twice a day. The pre-drug response and the response 1 h after injection were assessed in the morning session. […] The normalization of basal sensitivity lasted at least 8 days without signs of tolerance.

In the case of COC[C@@H](NC(C)=O)C(=O)NCc1ccccc1 [SPM 927, (R)-2-acetamide-N-benzyl-3-methoxypropionamide], the “effect on mechanical and cold allodynia” value ([1]; 10 mg/kg) was “no effect”, the “effect on mechanical and cold allodynia” value ([1]; 15 mg/kg) was “partially alleviated mechanical and cold allodynia in the majority, but not all, rats” and the “effect on brushing and cold” value ([1]; 15 mg/kg, FIG. 1B, C) was “significant effect”. For the same compound, the “increase in threshold to stimulation with von Frey hairs” value ([1]; 15 mg/kg, FIG. 1a) was “significant, but did not return to normal level”, the “duration of complete reversal of mechanical and cold allodynia” value ([1]; 20 mg/kg) was “about 2 h” and the “effect on mechanical and cold allodynia” value ([1]; 20 mg/kg) was “completely reversed mechanical and cold allodynia in all rats”. The “vocalization threshold to von Frey hair stimulation 1 h after injection” value ([2]; days 1-3) was “increase in vocalization threshold”, the “allodynia to stimulation with von Frey hairs and cold after discontinuation” value ([2]; discontinued after day 7) was “reappeared on day 9” and the “effect on brush stimulation after discontinuation” value ([2]; discontinued after day 7) was “maintained up to day 11”. For the same compound, the “pre-drug response to von Frey hair stimulation” value ([2]; FIG. 2A) was “normalized on day 4”, the “baseline responses to brushing and cold” value ([2]; FIG. 2B, 2C) was “normalized from day 2 to day 6 respectively” and the “duration of normalization of basal sensitivity” value ([2]; without signs of tolerance) was “at least 8 days”.
